Among the data in ChEMBL document CHEMBL3112430, “Biological evaluation of new antitumor taxoids: alteration of substitution at the C-7 and C-10 of docetaxel” (2014) are GI50 and RatioGI50 values, retold here.

Holding throughout (format): functional
The nature of assay [1]: Growth inhibition of human BGC823 cells by MTT assay. The settings on record: BGC-823.
Assay [2] is described as follows: Growth inhibition of human U937 cells by MTT assay. The conditions noted are these: U-937.
A further assay concerns MCF7. The assay can be described thus: Growth inhibition of human MCF7 cells by MTT assay.
For another assay, the system named is A-431. Briefly: Growth inhibition of human A431 cells by MTT assay.
Another assay has as its system HeLa. The assay can be described thus: Growth inhibition of human HeLa cells by MTT assay.
A short description of assay [3]: Growth inhibition of human Bel7402 cells by MTT assay. The conditions noted are these: Bel-7402.
A further assay concerns HL-60. The assay can be described thus: Growth inhibition of human HL60 cells by MTT assay.
For another assay, the system named is DU-145. Briefly: Growth inhibition of human DU145 cells by MTT assay.
Assay [4] can be described thus: Growth inhibition of human SGC7901 cells by MTT assay. The conditions noted are these: SGC-7901.
Assay [5] deals with A549. Briefly: Growth inhibition of human A549 cells by MTT assay.
Assay [6] is described as follows: (§1) Growth inhibition of human HT1080 cells by MTT assay. The conditions noted are these: HT-1080.
The subject of the next assay is MOLT-4. The assay can be described thus: Growth inhibition of human MOLT4 cells by MTT assay.
Assay [7] is described as follows: Growth inhibition of human PANC1 cells by MTT assay. The settings on record: PANC-1.
For the next assay, the system named is K562. Briefly: Growth inhibition of human K562 cells by MTT assay.
The next assay concerns Huh-7. Briefly: Growth inhibition of human HuH7 cells by MTT assay.
The test system of a further assay is HT-1080. The assay is described as §1.
The test system of assay [8] is A549. Briefly: Ratio of taxol GI50 to compound GI50 for human A549 cells.

Molecules are shown by their SMILES. Active and inactive are the calls of the source. The calls are words filed in the database; no cut-off is given here.

As for `CC(=O)O[C@@]12CO[C@@H]1C[C@H](OC(=O)C(C)(CO)CO)[C@@]1(C)C(=O)[C@H](OC(=O)C(C)(CO)CO)C3=C(C)[C@@H](OC(=O)[C@H](O)[C@@H](NC(=O)OC(C)(C)C)c4ccccc4)C[C@@](O)([C@@H](OC(=O)c4ccccc4)[C@H]21)C3(C)C`, the GI50 in assay [1] stood at 984 nM; in assay [2], 198 nM; in the assay with MCF7, 130 nM; in the assay on A-431 it was 1.25 nM; with HeLa, 225 nM; in [3], 11.9 nM. Besides, the GI50 was 376 nM in the assay on HL-60; 65.1 nM with DU-145; 558 nM in assay [4]; 159 nM with A549 [5]; 166 nM in [6]; 263 nM with MOLT-4. The figures for the GI50 (in [7]; with K562; in the assay with Huh-7) were 170 nM, 554 nM and 104 nM, respectively.

With `COCO[C@H]1C(=O)[C@]2(C)[C@@H](OCOC)C[C@H]3OC[C@@]3(OC(C)=O)[C@H]2[C@H](OC(=O)c2ccccc2)[C@]2(O)C[C@H](OC(=O)[C@H](O)[C@@H](NC(=O)OC(C)(C)C)c3ccccc3)C(C)=C1C2(C)C`, the GI50 in [1] is 80.5 nM; in [2], 6.15 nM; in the assay with MCF7, 615 nM; in the assay on A-431, 275 nM; in the assay on HeLa, 1.24 nM; in assay [3], 661 nM. For the same compound, the GI50 in the assay on HL-60 came out at 1230 nM; in the assay on DU-145, 2.09 nM; in assay [4], 966 nM; with A549 [5], 563 nM; in [7], 1.89 nM; in the assay with Huh-7, 257 nM. In addition, the GI50 result with HT-1080 and in the assay with K562 was “inactive” throughout.

With `CC(=O)O[C@@]12CO[C@@H]1C[C@H](OCCO)[C@@]1(C)C(=O)[C@H](OCCO)C3=C(C)[C@@H](OC(=O)[C@H](O)[C@@H](NC(=O)OC(C)(C)C)c4ccccc4)C[C@@](O)([C@@H](OC(=O)c4ccccc4)[C@H]21)C3(C)C`, the GI50 was determined as 128 nM in [1]; 7.41 nM in assay [2]; 7.41 nM in the assay on MCF7; 38.5 nM in the assay on A-431; 6.65 nM in the assay on HeLa; 56 nM in assay [3]. For the same compound, the GI50 in the assay on HL-60 was 118 nM; in the assay with DU-145, 413 nM; in [4], 92.5 nM; in the assay on A549 [5], 6.76 nM; in assay [6] it was 472 nM; in [7] it was 296 nM. For the same compound, the values for the GI50 in the assay on K562 and in the assay with Huh-7 were 470 nM and 113 nM, respectively.

Consider `CO[C@H]1C(=O)[C@]2(C)[C@@H](OC)C[C@H]3OC[C@@]3(OC(C)=O)[C@H]2[C@H](OC(=O)c2ccccc2)[C@]2(O)C[C@H](OC(=O)[C@H](O)[C@@H](NC(=O)OC(C)(C)C)c3ccccc3)C(C)=C1C2(C)C` [CABAZITAXEL], for which the GI50 in assay [1] worked out at 467 nM; in assay [2] it was 0.539 nM; in the assay with MCF7 it was 1.19 nM; with A-431 it was 1.48 nM; in the assay with HeLa, 1.8 nM; with HL-60, 4.74 nM. The GI50 was 1.43 nM with DU-145; 0.355 nM in [4]; 1.48 nM in the assay with A549 [5]; 1.41 nM in assay [6]; 1.28 nM in assay [7]; 4.19 nM in the assay on K562.

Turning to `COCCO[C@H]1C(=O)[C@]2(C)[C@@H](OCCOC)C[C@H]3OC[C@@]3(OC(C)=O)[C@H]2[C@H](OC(=O)c2ccccc2)[C@]2(O)C[C@H](OC(=O)[C@H](O)[C@@H](NC(=O)OC(C)(C)C)c3ccccc3)C(C)=C1C2(C)C`, the GI50 in [1] was determined as 2 nM; in assay [2], 38.8 nM; in the assay with MCF7, 345 nM; in the assay on A-431 it was 6.73 nM; with HeLa it was 407 nM; in assay [3], 57.3 nM. The GI50 with HL-60 came to 57.9 nM; with DU-145 it was 982 nM; in [4], 68.2 nM; in the assay with A549 [5] it was 3.1 nM; in assay [6], 480 nM; with MOLT-4, 749 nM. The GI50 in assay [7] came out at 295 nM; with K562 it was 936 nM; in the assay with Huh-7, 227 nM.

For the compound `CC(=O)O[C@H]1C(=O)[C@@]2(C)[C@H]([C@H](OC(=O)c3ccccc3)[C@]3(O)C[C@H](OC(=O)[C@H](O)[C@@H](NC(=O)c4ccccc4)c4ccccc4)C(C)=C1C3(C)C)[C@]1(OC(C)=O)CO[C@@H]1C[C@@H]2O` [PACLITAXEL], the GI50 in assay [1] was found to be 3.6 nM; in assay [2], 2.39 nM; in the assay on MCF7, 1.29 nM; with A-431 it was 2.35 nM; with HeLa, 3.21 nM; in assay [3], 1.79 nM. Besides, the GI50 with DU-145 turned out to be 5.57 nM; in [4], 3.09 nM; in the assay on A549 [5] it was 18.7 nM; in assay [6], 3.89 nM; in the assay on MOLT-4, 2.23 nM; in [7] it was 2.41 nM. Also, the GI50 in the assay with K562 amounted to 7.01 nM; in the assay with Huh-7, 207 nM.

`CCOCCO[C@H]1C(=O)[C@]2(C)[C@@H](OCCOCC)C[C@H]3OC[C@@]3(OC(C)=O)[C@H]2[C@H](OC(=O)c2ccccc2)[C@]2(O)C[C@H](OC(=O)[C@H](O)[C@@H](NC(=O)OC(C)(C)C)c3ccccc3)C(C)=C1C2(C)C`: the GI50 in assay [1] was 816 nM; in assay [2], 1.95 nM; with MCF7, 1.19 nM; in the assay on A-431 it was 2.27 nM; in the assay on HeLa, 2.53 nM; in assay [3], 1.56 nM. Besides, the GI50 with HL-60 amounted to 63.7 nM; in the assay on DU-145, 3.69 nM; in assay [4] it was 2.27 nM; in the assay on A549 [5] it was 1.94 nM; in [6], 2.83 nM; in the assay with MOLT-4 it was 268 nM. Besides, the GI50 amounted to 150 nM in assay [7], 483 nM with K562 and 87.5 nM in the assay with Huh-7. Besides, the RatioGI50 in the assay on A549 [8] came out at 9.
